According to US20160279207A1, “TARGETING GDF6 AND BMP SIGNALING FOR ANTI-MELANOMA THERAPY” (University of Massachusetts, priority 2015, published 2016):
Entries after “also recorded” stand apart in the source; their conditions may differ.

How the values were obtained:
SKMEL28 melanoma cells = experiment: Growth curves of SKMEL28 cells by direct cell counting; format: cell-based, human; conditions: DMH1 vs control
Procedure: (§1) For growth curves 50,000 live cells were seeded per well in a 6-well tissue culture plate on day 0. The numbers of live cells were calculated every day using an automated cell counter (Nexcelom Bioscience Cellometer Auto T4) following standard procedures. All assays were performed with technical replicates. For clonogenic assays, 3,000 live cells were seeded in a 10 cm tissue culture plate. After 3 weeks, colonies were fixed and stained using bromophenol blue in acetone. ImageJ was used to quantify the number of colonies. In assays with DMH1 treatment, control or DMH1-containing media was replaced every other day. For soft agar assays a 0.5% bottom layer (1:1 with 1% agar and 2X DMEM with 20% FBS) and a 0.3% top layer (1:1 with 0.6% agar and 2× DMEM with 20% FBS) were used. 3,000 live cells per well of a 6-well tissue culture plate were added in the top layer. Media was added initially then replaced every 3 days. After 3 weeks, colonies were stained with nitroblue tetrazolium chloride overnight at 37° C. Once stained, individual wells were photographed, and ImageJ was used to count the number of colonies. All these assays were done in triplicate, and experiments were repeated at least twice. A representative image of each has been shown.

A375 melanoma cells [1] = experiment: A375 melanoma xenograft in nude mice, tumor volume; format: in vivo, mouse; conditions: 25 mg/kg DMH1 intraperitoneally every other day, A375 cells in BALB/c nu/nu mice
Procedure: An art-accepted model to test for an agent's effects on melanoma is that of using immunocompromised (“nude”) mice which are then injected subcutaneously with melanoma cells, and then concomitant with injection of the cells, sometime after injection, and/or after tumor establishment, the test agent is appropriately administered (e.g., intravenously, peritoneally, orally, etc.). Control and treated animals are monitored in part for tumor growth, tumor stabilization, and tumor regression (see for example, Yang et al. 2010. Cancer Res., 70:5518-5527 and Bollag et al. 2010. Nature. 467:596-599).
All animal protocols were approved by the UMMS Institution Animal Care and Use Committee (A-2016, A-2171). Mice were randomly allocated to individual experimental groups. No blinding was done as animal groups were identified by tagging and cage labeling. Animals were excluded, according to pre-established criteria, if the tumor volume reached >1,000 mm^3; if tumor size or location affected the mobility or general health of animal, the animal was euthanized and excluded from the experiment or the complete experiment was terminated. A375 cells stably expressing an EGFP or GDF6 or SMAD1 shRNA and/or empty vector or GDF6-expressing vector or SMAD1DVD-overexpressing vector were subcutaneously injected into the flanks of 6-8-week-old BALB/c nu/nu female mice (Taconic Farms) to produce orthotopic primary tumor. Primary tumor growth was monitored every 3 days with calipers, and the tumor volume was calculated as described previously (C. Gazin, N. Wajapeyee, S. Gobeil, C. M. Virbasius, M. R. Green, An elaborate pathway required for Ras-mediated epigenetic silencing. Nature 449, 1073-1077 (2007)). For GDF6 knockdown, SMAD1 knockdown and epistasis experiments, 1×10^7 live cells were injected. For GDF6 overexpression experiments, 1×10^6 live cells were injected. For GDF6 overexpression and GDF6 knockdowns, a representative of two independent experiments (n=3 animals per experiment) is shown. For DMH1 drug experiments, 1×10^6 live A375 cells were subcutaneously injected in the flanks of BALB/c nu/nu female mice. Beginning on the day cells were injected, mice were injected intraperitoneally with vehicle 12.5% 2-hydroxypropyl-β-cyclodextrin or 25 mg/kg DMH1 in vehicle every other day. The growth of the tumor was monitored as described above. This experiment was repeated twice and the weighted average of both experiments (n=8 total) is represented.

A375 melanoma cells [2] = experiment: Growth curves of A375 cells by direct cell counting; format: cell-based, human; conditions: 10 μM DMH1 vs control
Procedure: as §1

A375 melanoma cells [3] = experiment: Clonogenic growth (colony formation) assay; format: cell-based, human; conditions: A375-EMPTY vs A375-SMAD1DVD, 10 μM DMH1 in 0.1% DMSO
Procedure: as §1, with “After 3 weeks, colonies were fixed and stained using bromophenol blue in acetone.” left out

BMP signaling = experiment: Western blot of phospho-SMAD1 relative to total SMAD in DMH1-treated A375 cells; format: cell-based, human; conditions: 10 μM DMH1 vs control media
Procedure: Protein extracts were prepared as previously described (S. D. Epstein L B, Hunte-McDonough B, harris C A, Cytokines: A pratical approach (Balkwill F R., ed). 81-93 (1991)). Extracts were separated on 12% SDS-PAGE gels. Blots were probed with primary antibodies (GDF6 (Sigma PRS4691; 1:1000), phospho-SMAD1/5/8 (Cell Signaling 13820; 1:1000), SMAD1 (Cell Signaling 9743; 1:500), Total SMAD1/5/8 (Santa Cruz sc-6031-R; 1:1000), FLAG (Sigma F3165, 1:2000), GAPDH (Abcam 8245; 1:2000)) overnight at 4° C., washed five times in TBS plus 0.1% Tween (TBST) and then incubated with the appropriate HRP-conjugated secondary antibody (Jackson Labs) for 1 hour at room temperature. Membranes were washed five times in TBST and visualized on autoradiography film after incubating with ECL reagent (Supersignal West Pico or Supersignal West Femto; Thermo Scientific).

Question: For `CC(C)Oc1ccc(-c2cnc3c(-c4ccnc5ccccc45)cnn3c2)cc1` [DMH1], which “SKMEL28 melanoma cell growth (growth curves)” value (SKMEL28 melanoma cells) is on record?
Answer: grew more slowly than did control cells

Question: What about the “tumor growth (tumor volume over time), DMH1 vs vehicle” value (A375 melanoma cells [1]) of the same compound?
Answer: smaller tumors arose and grew more slowly; also recorded: decreased tumorigenicity; also recorded: abrogates melanoma growth in mouse xenografts in vivo

Question: What about the “A375 melanoma cell growth (growth curves)” value (A375 melanoma cells [2]) of the same compound?
Answer: grew more slowly than did control cells; also recorded: inhibits A375 melanoma cell growth

Question: What about the “colony formation of DMH1-treated cells expressing SMAD1DVD” value (A375 melanoma cells [3]) of the same compound?
Answer: reversed by SMAD1DVD

Question: And the “level of phospho-SMAD1 relative to total SMAD protein” value (BMP signaling)?
Answer: reduced level of phospho-SMAD1 relative to total SMAD protein
